According to patent US7557215B2, “Anthraquinone compounds as anti cancer compounds” (Somanta Limited, priority 2003, dated 2009):

Columns and labels:
A2780 [1] = system: A2780
A2780 [2] = test: Inhibition of cell growth, A2780 wild type ovarian carcinoma cell line
[3] = system: cisplatin resistant variant (A2780/cp70) xenograft; test: Tumour doubling time, cisplatin resistant variant xenograft A2780/cp70 in mice; assay type: in vivo; conditions: 16 mg/kg i.p.
Source text: (§1) Compound HAQ71, with the lowest RF (0.2) of the panel of compounds tested against the cisplatin resistant cells and its chloropropyl-substituted analogue, was selected for in vivo investigation in mice using tumour A2780 and A2780/cp70 cells grown as xenografts in mice. Significant anticancer activity in vivo of HAQ71 and CAQ75 was shown; both compounds exerting similar tumour growth delay in human xenografted wild-type and acquired cisplatin resistant tumours (A2780/cp70). The latter is very refractory to cisplatin and other covalent binding agents and has been characterised with elevated levels of glutathione, alterations in drug uptake/efflux and DNA repair mechanisms including mismatch repair deficiency.

[4] = system: human ovarian tumour xenograft (A2780); test: Tumour doubling time, human ovarian tumour xenograft A2780 in mice; assay type: in vivo; conditions: 16 mg/kg i.p.
Source text: as §1

A2780/cp70 = test: Inhibition of cell growth, cisplatin resistant A2780/cp70 cell line; assay type: cell-based, human; conditions: text b280, b283

| Compound | cytotoxicity ratio (CR=IC50 of alkylaminoanthraquinone-di-N-oxide/IC50 alkylaminoanthraquinone) (A2780 [1]) | IC50 (A2780 [2]; read-out: Growth Inhibition (IC50) A2780, A2780, Table 4) [µM] | fold decrease in cytotoxicity on substitution of OH with Cl (HAQ71 vs CAQ75) (A2780 [2]; CAQ75 compared with HAQ71) [fold] | doubling time (days) of tumour xenograft [3] [days] | tumour growth delay (%) [3] [%] | doubling time (days) of tumour xenograft [4] [days] | tumour doubling time, percent [4] [%] | RF against the cisplatin resistant cells (A2780/cp70) |
| --- | --- | --- | --- | --- | --- | --- | --- | --- |
| C[N+](C)([O-])CCNc1ccc(NCC[N+](C)(C)[O-])c2c1C(=O)c1c(O)ccc(O)c1C2=O [AQ4N] | 17,000 | > 100 | – | – | – | – | – | – |
| CN(C)CCNc1ccc(NCCN2CCCCC2CCl)c2c1C(=O)c1c(O)ccc(O)c1C2=O (centres unmarked) [CAQ75, 1-{[2-(2-Chloromethylpiperidin-1-yl)ethyl]amino}-4-{[(2-dimethylamino)ethyl]amino}-5,8-dihydroxyanthracene-9,10-dione] | – | – | > 10 | 4.18 ± 0.27 | 166 | 5.83 ± 0.40 | 198 | 0.4 |
